Test results published in patent US6534082B1, “Method of treating disorders of the eye” (Duke University, priority 1994, dated 2003).

Test system: enucleated cow eyes
Experiment: Constant pressure perfusion of enucleated cow eyes, outflow facility
Conditions: 5 h perfusion, 22° centigrade, 15 mm of mercury; for increase in outflow facility at the end of the experiment versus initial baseline: 0.125 mM drug in perfusion medium, ± SEM; for increase in outflow facility at the end of the experiment versus initial baseline, drug plus cysteine: 0.125 mM drug plus 0.625 mM cysteine
Method: Enunciated cow eyes were obtained from a local commercial abattoir, immediately chilled, and then perfused within twenty-four hours using a standard constant pressure perfusion technique. Pairs of eyes from a single animal were used for each experiment and subjected to the same manipulation except for the experimental drug in the experimental eye of perfusion. Briefly, a 5 mm central cornea trephine button was removed from each eye. Radial iridotomy was performed to prevent artificial deepening of the anterior chamber during perfusion. The anterior chamber was then gently irrigated with perfusion medium to remove pigment which might have been liberated by the iridotomy. A Grant stainless steel fitting was then placed into the cornea and connected by twenty-three gauge polyethylene tubing to the fluid reservoir of the perfusion apparatus.
The perfusion medium was Dulbecco's phosphate-buffered salt solution (PBS) (Grand Island Biological Company, Grand Island, N.Y.) with added 5.5 mM glucose. All solutions were filtered through a 0.2 μm Nuclepore filter.
The initial flow value was determined after the eyes had been perfused for one hour which allowed sufficient time to achieve adequate stability. The corneal fitting was removed, and the anterior chamber was gently emptied and refilled with fresh perfusion medium with added drug or sham solution. The corneal fitting was replaced and the eye was perfused for an additional five hours. The outflow facility (flow/pressure) was calculated at the end of the experiment and compared to the initial baseline after the initial hour (pre-drug, both eyes received control perfusion medium for the first hour). The change in the experimental eye was compared to the change in the fellow control eye by a paired T-test. Control eyes were treated similarly except that an osmotically equivalent amount of sodium chloride was added to the perfusion medium in place of the drug. All perfusions were performed at 22° centigrade and the perfusion pressure was 15 mm of mercury.

SMILES | increase in outflow facility at the end of the experiment versus initial baseline | increase in outflow facility at the end of the experiment versus initial baseline, drug plus cysteine
O=C(O)COc1ccc(C(=O)c2cccs2)c(Cl)c1Cl [ticrynafen] | 102%±23% | 80%±9%
CC1(c2ccccc2)Cc2cc(OCC(=O)O)c(Cl)c(Cl)c2C1=O (stereo not shown) [indacrinone] | 113%±24% | 91%±8
